We go through 1 compound from paper PMC8344022, “Small-molecule inhibitor of AF9/ENL-DOT1L/AF4/AFF4 interactions suppresses malignant gene expression and tumor growth” (Theranostics, 2021).

One data set deals with MV4;11 cells. Put plainly: Antiproliferation assay (XTT). Format: cell-based. The following applies: 14-day incubation, read-out: Cytotoxicity EC50. On the procedure:
(§1) Antiproliferation assay. Proliferation inhibition assays for suspension blood cancer cells were performed using an XTT assay kit (Roche). Proliferation inhibition assays for solid tumor cell lines MCF-7, MDA-MB-231, Panc1, Panc28 were performed using an MTT assay (Sigma). The antiproliferation EC50 values were determined using Prism 5 and the reported results were the mean values of at least three independent experiments. The incubation time for compound 1 was 7 days and that for EPZ4777 was 14 days.

A further data set relates to Molm-13 cells. The data set is described as follows: Antiproliferation assay (XTT). The following applies: 14-day incubation, read-out: Cytotoxicity EC50. Format: cell-based. On the procedure:
as §1
(Tetrazolium dyes change colour on reduction, which living cells bring about.)

The next data set has as its system RPMI-8226 cells. Put plainly: Antiproliferation assay (XTT). Format: cell-based. To be noted: 14-day incubation, read-out: Cytotoxicity EC50. On the procedure: as §1
The next data set has as its system U266 cells. Put plainly: Antiproliferation assay (XTT). Format: cell-based. To be noted: 14-day incubation, read-out: Cytotoxicity EC50. The protocol: as §1
Another data set relates to MCF-7 cells. The data set is described as follows: Antiproliferation assay (MTT). To be noted: 14-day incubation, read-out: Cytotoxicity EC50. The format is cell-based. On the procedure:
as §1

Another data set deals with MDA-MB-231 cells. The data set is described as follows: Antiproliferation assay (MTT). The format is cell-based. To be noted: 14-day incubation, read-out: Cytotoxicity EC50. The protocol: as §1
The next data set has as its system Panc-1 cells. Put plainly: Antiproliferation assay (MTT). The format is cell-based. To be noted: 14-day incubation, read-out: Cytotoxicity EC50. The protocol: as §1
For the next data set, the system named is Panc-28 cells. The data set is described as follows: Antiproliferation assay (MTT). The format is cell-based. The following applies: 14-day incubation, read-out: Cytotoxicity EC50. On the procedure: as §1
Data set [1] deals with nuclear protein levels in Molm-13 cells. Put plainly: Western blot of nuclear proteins. Format: cell-based. The following applies: 3 days. The protocol:
Next, we investigated how compound 1 affects these transcription cofactors in the nucleus, where they regulate gene expression. […] DOT1L inhibitor EPZ4777 [25] reduced the methylation levels of H3K79, but not other proteins (Figure 3B). […] In this regard, despite lack of activity against DOT1L, compound 1 can mimic EPZ4777 to reduce H3K79 methylation.
Western blot. 3x10^6 cells/well were treated with increasing concentrations of a compound for 3 days and nuclear proteins extracted with the EpiQuik Nuclear Extraction Kit (Epigentek) according to the manufacturer's protocol. Equal amounts of proteins were separated on SDS-PAGE and transferred to PVDF membranes. The blots were probed with primary antibodies, followed by anti-rabbit or anti-mouse IgG (Thermo Scientific) secondary antibodies. The primary antibodies used in this research were MBP Mouse mAb (#2396, Cell signaling), DOT1L Rabbit mAb (#77087, Cell signaling), MLL-N Rabbit mAb (#14689, Cell signaling), ENL Rabbit mAb (#14893, Cell signaling), Di-Methyl-Histone H3K79 Rabbit mAb (#5427, Cell signaling), Mono-Methyl-Histone H3K79 Rabbit mAb (#9398, Cell signaling), Histone H3 Rabbit mAb (#4499, Cell signaling), AF4 Rabbit pAb (#NBP1-28705, Novusbio) and AFF4 Rabbit pAb (#ab103586, Abcam).

In data set [2] the test system is HoxA9, Meis1 and Myc expression in MV4;11 cells. Put plainly: qPCR of MLL target genes. The format is cell-based. The following applies: 4 days. On the procedure:
(§2) Next, compound 1 was tested for its ability to change expression of characteristic MLL-r leukemia genes HoxA9, Meis1 and Myc. Myc is also overexpressed in a broad range of AML and other cancers. […] (Figure S5), presumably because SEC is not recruited there.
(§3) RNA extraction and Quantitative real-time PCR (qPCR). 10^5 cells/ml were incubated with a compound for 4 days and the RNA was extracted using RNeasy mini kit (#74104, Qiagen). 100-1000 ng of total RNA was reverse transcribed using iScript™ Reverse Transcription Supermix (Bio-Rad) using the manufacturer's protocol. Quantitative real-time PCR was carried out using Fast SYBR Green Master Mix (Applied Biosystems) according to the manufacturer's instructions. Measurements were performed in triplicate, using GAPDH as the reference gene. Real-time PCR was performed using Biosystems Step One Plus detection system. The following sequences of primers are used: […]

Data set [3] deals with HoxA9, Meis1 and Myc expression in Molm-13 cells. Put plainly: qPCR of MLL target genes. Format: cell-based. To be noted: 4 days. On the procedure:
as §2, §3

Data set [4] relates to H3K79me2 at gene promoters in Molm-13 cells. The data set is described as follows: Chromatin immunoprecipitation (ChIP)-qPCR. Format: cell-based. To be noted: 2 μM. The protocol: as §2
Chromatin immunoprecipitation. […] Cells were lysed with nuclear lysis buffer and sonicated to ~100-1000 bp fragments, which was incubated at 4 °C overnight with the H3K79me2 antibody (#5427, Cell signaling) and IgG (C15410206, Diagenode). Protein A/G Magnetic Beads (10 µL, Novus Biologicals) were added and incubated for 2 h. The beads were washed 3x with RIPA buffer and 2x with TE buffer. DNA on the beads was eluted for 2 hours at 68 °C in 100 μL of an elution buffer (20 mM Tris pH 7.5, 5 mM EDTA, 50 mM NaCl, 1% SDS, 50 μg/ml proteinase K) (2x), and purified using a ChIP DNA Clean & Concentrator kit (Novus Biologicals). qPCR was done using the method described above.

Another data set deals with THP-1 cells. Details: method as in earlier work. To be noted: read-out: Cytotoxicity EC50; cited from earlier work.
A further data set deals with HL60 cells. On the set-up: method as in earlier work. The following applies: read-out: Cytotoxicity EC50; cited from earlier work.
In the next data set the test system is Kasumi-1 cells. Details: method as in earlier work. To be noted: read-out: Cytotoxicity EC50; cited from earlier work.
A further data set has as its system Jurkat cells. Details: method as in earlier work. The following applies: read-out: Cytotoxicity EC50; cited from earlier work.

SMILES strings stand for the structures.

As for `CC(C)N(CCCNC(=O)Nc1ccc(C(C)(C)C)cc1)C[C@H]1O[C@@H](n2ccc3c(N)ncnc32)[C@H](O)[C@@H]1O` [EPZ4777, reference compound], the EC50 in the data set on MV4;11 cells is 1.1 ± 0.3 µM; in the data set on Molm-13 cells, 1.2 ± 0.2 µM; with RPMI-8226 cells, above 50 µM; in the data set with U266 cells, above 50 µM; in the data set on MCF-7 cells, above 50 µM; with MDA-MB-231 cells, above 50 µM. In addition, the EC50 was above 50 µM in the data set on Panc-1 cells; above 50 µM in the data set with Panc-28 cells; 3.4 µM in the data set with THP-1 cells; above 50 µM in the data set with HL60 cells; 33 µM in the data set with Kasumi-1 cells; above 50 µM in the data set on Jurkat cells. Further, in [1], the “Nuclear levels of DOT1L, H3K79me1 and me2, ENL and AFF4” value was “only reduced those of H3K79me1 and me2, but not other proteins”. The “Expression of MLL target genes HoxA9, Meis1 and Myc” value in [2] and in data set [3] was “behaved similarly” in each case. Besides, the “H3K79me2 in the gene promoters of HoxA9 and Myc” value in [4] is listed as “decreased levels of H3K79me2”.

Broadly, the EC50 is the concentration needed to bring the measured effect to its halfway point.
